The results in this text go back to patent US12240857B2 (priority 2017, dated 2025).

Data set [1] has as its system EBOV mucin-domain-deleted glycoprotein pseudotyped VSV. Briefly: microbe, parasite or virus in culture. The following applies: Zaire ebolavirus, Vero, read-out: EC50 EBOV. The class given is cell-based, Zaire ebolavirus.
Data set [2] deals with BDBV mucin-domain-deleted glycoprotein pseudotyped VSV. Briefly: microbe, parasite or virus in culture. The data set is classed as cell-based, Bundibugyo ebolavirus. The following applies: Vesicular stomatitis virus, Vero, read-out: EC50 BDBV.
The next data set can be described thus: in vitro. The conditions noted are these: African green monkey, CC50.

By EC50 is commonly meant the concentration at which the effect is half-maximal. With `CC12CC3CC(C(=O)N4CC5(CC(N)C5)C4)(C1)CC(c1ccccc1)(C3)C2` (stereo not drawn) [Example A91], the EC50 was 0.12 µM in data set [1] and 0.19 µM in data set [2]. In addition, in the data set “in vitro”, the CC50 was 17.4 µM.
In the case of `CC12CC3CC(C(=O)NC4C[C@H]5CC[C@H](C4)N5)(C1)CC(c1ccccc1)(C3)C2` (stereo partly drawn) [Example A92], the EC50 in data set [1] was determined as 0.19 µM; in data set [2], 0.7 µM. The molecule further returned a CC50 in the data set “in vitro” of 10.8 µM.
The like results for `CC12CC3CC(C(=O)N4C5CCC4CC(N)C5)(C1)CC(c1ccccc1)(C3)C2` (stereo not drawn) [Example A93] were, in that order, 0.21 µM, 0.36 µM and 12.2 µM.
Regarding `N[C@H]1CC[C@H](NC(=O)C23CC4CC(C2)CC(C(F)(F)F)(C4)C3)CC1` [Example A94], the EC50 worked out at 1 µM in data set [1] and 0.88 µM in data set [2]. Moreover, the CC50 in the data set “in vitro” was found to be 5.1 µM.
As to `CC12CC3CC(C(=O)NCC4CCNCC4)(C1)CC(c1ccccc1)(C3)C2` (stereo not drawn) [Example A95], the EC50 in data set [1] stood at 0.49 µM; in data set [2], 0.97 µM. In the data set “in vitro”, the CC50 was 23.1 µM.
Regarding `CC12CC3CC(C(=O)N[C@H]4CC[C@H](CN)CC4)(C1)CC(c1ccccc1)(C3)C2` (stereo partly drawn) [Example A96], the EC50 in data set [1] is 0.03 µM; in data set [2], 0.08 µM. This molecule also registered a CC50 in “in vitro” of 11.6 µM.
The like results for `N[C@H]1CC[C@H](NC(=O)CC2(c3ccccc3)C3CC4CC(C3)CC2C4)CC1` (stereo partly drawn) [Example A97] were, in that order, 0.34 µM, 0.25 µM and 100 µM.
As for `N[C@H]1CC[C@@H](NC(=O)CC2(c3ccccc3)C3CC4CC(C3)CC2C4)CC1` (stereo partly drawn) [Example A98], the values for the EC50 in data set [1] and in data set [2] were 1.16 µM and 0.58 µM, respectively. In addition, the CC50 in “in vitro” was 11.3 µM.
The like results for `O=C(CC1(c2ccccc2)C2CC3CC(C2)CC1C3)NC1CCNCC1` (stereo not drawn) [Example A99] were, in that order, 0.69 µM, 0.19 µM and 26.7 µM.
For the molecule `Cc1cccc(C23CC4CC(CC(C(=O)N[C@H]5CC[C@H](N)CC5)(C4)C2)C3)c1` [Example A100], the 50% effective concentration (EC50) is 0.22 µM in data set [1] and 0.18 µM in data set [2]. In the data set “in vitro”, the CC50 is 6.3 µM.
For `CC12CC3CC(C(=O)N[C@H]4[C@@H]5CNC[C@@H]54)(C1)CC(c1ccccc1)(C3)C2` (stereo partly drawn) [Example A102], the EC50 in data set [1] turned out to be 0.12 µM; in data set [2], 0.21 µM. In the data set “in vitro”, the CC50 came out at 29 µM.
`CC12CC3CC(C(=O)Nc4ccc(CN)cc4)(C1)CC(c1ccccc1)(C3)C2` (stereo not drawn) [Example A103]: the values for the EC50 in data set [1] and in data set [2] were 0.07 µM and 0.28 µM, respectively. The same molecule showed a CC50 in the data set “in vitro” of 7.9 µM.
As for `CN(C(=O)C12CC3CC(C)(C1)CC(c1ccccc1)(C3)C2)C1CCNCC1` (stereo not drawn) [Example A104], the figures for the EC50 in data set [1] and in data set [2] were 0.06 µM and 0.22 µM, respectively. The CC50 in “in vitro” came out at 66 µM.
Take `CC(C)C12CC3CC(C(=O)N[C@H]4CC[C@H](N)CC4)(CC(c4ccccc4)(C3)C1)C2` (stereo partly drawn) [Example A105]: the results for the EC50 in data set [1] and in data set [2] were 0.14 µM and 1.05 µM, respectively. The molecule further returned a CC50 in “in vitro” of 35 µM.
On the same counts, the results for `C[C@H]1C[C@H](NC(=O)C23CC4CC(C)(C2)CC(c2ccccc2)(C4)C3)CCN1` (stereo partly drawn) [Example A107] are 0.046 µM, 0.3 µM and 14.7 µM.
On the same counts, the results for `CC12CC3CC(C(=O)N[C@@H]4CCNC[C@H]4F)(C1)CC(c1ccccc1)(C3)C2` (stereo partly drawn) [Example A108] are 0.025 µM, 0.21 µM and 16.5 µM.
In the case of `CC12CC3CC(C(=O)NC4CCNCC4(F)F)(C1)CC(c1ccccc1)(C3)C2` (stereo not drawn) [Example A109], the EC50 in data set [1] is 0.08 µM; in data set [2], 0.93 µM. Also, the CC50 in “in vitro” came to 37 µM.
On the same counts, the results for `C[C@H]1C[C@@H](NC(=O)C23CC4CC(C)(C2)CC(c2ccccc2)(C4)C3)CCN1` (stereo partly drawn) [Example A110] are 0.021 µM, 0.19 µM and 17.5 µM.
As for `CC12CC3CC(C(=O)NC4CCNCC4(C)C)(C1)CC(c1ccccc1)(C3)C2` (stereo not drawn) [Example A111], the EC50 in data set [1] was found to be 0.018 µM; in data set [2] it was 0.15 µM. In addition, the CC50 in “in vitro” came to 10.7 µM.
Turning to `CC1CNCCC1NC(=O)C12CC3CC(C)(C1)CC(c1ccccc1)(C3)C2` (stereo not drawn) [Example A112], the EC50 in data set [1] was determined as 0.037 µM; in data set [2], 0.26 µM. In “in vitro”, the CC50 is 7.2 µM.
The like results for `COC(=O)C12CC3CC(C(=O)N[C@H]4CC[C@H](N)CC4)(C1)CC(c1ccccc1)(C3)C2` (stereo partly drawn) [Example A115] were, in that order, 0.98 µM, greater than 1 µM and 59 µM.
The like results for `CC12CC3CC(C(=O)Nc4ccncc4)(C1)CC(c1ccccc1)(C3)C2` (stereo not drawn) [Example A201, 3-methyl-5-phenyl-N-(pyridin-4-yl)adamantane-1-carboxamide] were, in that order, 1.1 µM, greater than 1 µM and 16.4 µM.
With `CC12CC3CC(C(=O)NCc4ncc[nH]4)(C1)CC(c1ccccc1)(C3)C2` (stereo not drawn) [Example A202, N-(1H-imidazol-2-ylmethyl)-3-methyl-5-phenyladamantane-1-carboxamide], the EC50 in data set [1] was 0.59 µM; in data set [2], 0.96 µM. In the data set “in vitro”, the CC50 came to 41.5 µM.
In the case of `CC12CC3CC(C(=O)Nc4ccnc(N)c4)(C1)CC(c1ccccc1)(C3)C2` (stereo not drawn) [Example A203, N-(2-aminopyridin-4-yl)-3-methyl-5-phenyladamantane-1-carboxamide], the EC50 in data set [1] was 0.91 µM; in data set [2], 1.02 µM. In the data set “in vitro”, this molecule registered a CC50 of 3.9 µM.
For `[O-][S+](NC1CCNCC1)C12CC3CC(CC(C3)C1)C2` (stereo not drawn) [Example A204, N-(piperidin-4-yl)adamantane-1-sulfinamide], the concentration giving a half-maximal response (EC50) in data set [1] and in data set [2] was greater than 1 µM each time. In “in vitro”, this molecule had a CC50 greater than 100 µM.
Turning to `O=S(=O)(NC1CCNCC1)C12CC3CC(CC(C3)C1)C2` [Example A205, N-(piperidin-4-yl)adamantane-1-sulfonamide], the EC50 in data set [1] and in data set [2] was greater than 1 µM each time. The CC50 in the data set “in vitro” was determined as 37 µM.
For the molecule `CN1CCN(CC23CC4CC(C2)CC(c2ccccc2)(C4)C3)CC1` [Example C1], the EC50 in data set [1] was determined as 0.18 µM; in data set [2], 0.206 µM. The CC50 in the data set “in vitro” was found to be 5.8 µM.
Turning to `CC12CC3CC(CNC4CCNCC4)(C1)CC(c1ccccc1)(C3)C2` (stereo not drawn) [Example C3, N-((3-methyl-5-phenyladamantan-1-yl)methyl)piperidin-4-amine], the figures for the EC50 in data set [1] and in data set [2] were 0.234 µM and 0.21 µM, respectively. The CC50 in the data set “in vitro” worked out at 1.8 µM.
Regarding `CC1CCN(CCCOc2ccc(C34CC5CC(CC(C5)C3)C4)cc2)CC1` [Example C4, 1-(3-(4-(adamantan-1-yl)phenoxy)propyl)-4-methylpiperidine], the EC50 is 0.14 µM in data set [1] and 0.4 µM in data set [2]. The molecule also returned a CC50 in the data set “in vitro” of 7.2 µM.
For the molecule `c1cc(C23CC4CC(CC(C4)C2)C3)ccc1OCCCN1CCCCC1` [Example C5, 1-(3-(4-(adamantan-1-yl)phenoxy)propyl)piperidine], the EC50 in data set [1] was determined as 0.14 µM; in data set [2], 0.55 µM. In the data set “in vitro”, the CC50 was found to be 14.3 µM.
As to `CN1CCN(CCCOc2ccc(C34CC5CC(CC(C5)C3)C4)cc2)CC1` [Example C6, 1-(3-(4-(adamantan-1-yl)phenoxy)propyl)-4-methylpiperazine], the EC50 was 0.12 µM in data set [1] and 0.64 µM in data set [2]. In addition, the CC50 in the data set “in vitro” came to 3.8 µM.
In the case of `CC1CCN(CC(O)CCOc2ccc(C34CC5CC(CC(C5)C3)C4)cc2)CC1` (stereo not drawn) [Example C7, 4-(4-(adamantan-1-yl)phenoxy)-1-(4-methylpiperidin-1-yl)butan-2-ol], the EC50 was determined as 0.47 µM in data set [1] and 0.77 µM in data set [2]. The CC50 in the data set “in vitro” amounted to 4.1 µM.
With `OC(CCOc1ccc(C23CC4CC(CC(C4)C2)C3)cc1)CN1CCCCC1` (stereo not drawn) [Example C8, 4-(4-(adamantan-1-yl)phenoxy)-1-(piperidin-1-yl)butan-2-ol], the EC50 in data set [1] is 0.14 µM; in data set [2], 0.29 µM. Besides, the CC50 in “in vitro” came to 1.3 µM.
Consider `CN1CCN(CC(O)CCOc2ccc(C34CC5CC(CC(C5)C3)C4)cc2)CC1` (stereo not drawn) [Example C9, 4-(4-(adamantan-1-yl)phenoxy)-1-(4-methylpiperazin-1-yl)butan-2-ol], for which the EC50 in data set [1] was 0.66 µM; in data set [2], 0.99 µM. In addition, the CC50 in “in vitro” was 8.3 µM.
The like results for `CC1CCN(C[C@H](O)COCC23CC4CC(C2)CC(c2ccccc2)(C4)C3)CC1` [Example C10, (2S)-1-(4-methylpiperidin-1-yl)-3-[(3-phenyladamantan-1-yl)methoxy]propan-2-ol] were, in that order, 0.19 µM, 0.17 µM and 3.6 µM.
As to `CC1CCN(C[C@@H](O)COCC23CC4CC(C2)CC(c2ccccc2)(C4)C3)CC1` [Example C11, (2R)-1-(4-methylpiperidin-1-yl)-3-[(3-phenyladamantan-1-yl)methoxy]propan-2-ol], the figures for the EC50 in data set [1] and in data set [2] were 0.18 µM and 0.11 µM, respectively. In “in vitro”, this molecule gave a CC50 of 3.6 µM.
The like results for `CC1CCN(C[C@H](O)COCCC23CC4CC(C2)CC(c2ccccc2)(C4)C3)CC1` [Example C12, (2S)-1-(4-methylpiperidin-1-yl)-3-[2-(3-phenyladamantan-1-yl)ethoxy]propan-2-ol] were, in that order, 0.27 µM, 0.19 µM and 1.2 µM.
The like results for `CC1CCN(C[C@@H](O)COCCC23CC4CC(C2)CC(c2ccccc2)(C4)C3)CC1` [Example C13, (2R)-1-(4-methylpiperidin-1-yl)-3-[2-(3-phenyladamantan-1-yl)ethoxy]propan-2-ol] were, in that order, 0.17 µM, 0.11 µM and 3.6 µM.
With `O=C(NC1CCNCC1)c1ccc(NCC23CC4CC(C2)CC(c2ccccc2)(C4)C3)nc1` [Example C14, 6-{[(3-phenyladamantan-1-yl)methyl]amino}-N-(piperidin-4-yl)pyridine-3-carboxamide], the EC50 was greater than 1 µM in data set [1] and 1 µM in data set [2]. The molecule further had a CC50 in the data set “in vitro” of 3.9 µM.
